Structures are written as SMILES.

For one experiment, the target named is Growth hormone secretagogue receptor type 1 (Rattus norvegicus, UniProt O08725). In words: In vitro growth hormone release was determined in rat pituitary cell assay. The class given is functional, cell-based, Pituitary gland cell.
Growth hormone secretagogue receptor type 1, sequence (O08725 whole entry): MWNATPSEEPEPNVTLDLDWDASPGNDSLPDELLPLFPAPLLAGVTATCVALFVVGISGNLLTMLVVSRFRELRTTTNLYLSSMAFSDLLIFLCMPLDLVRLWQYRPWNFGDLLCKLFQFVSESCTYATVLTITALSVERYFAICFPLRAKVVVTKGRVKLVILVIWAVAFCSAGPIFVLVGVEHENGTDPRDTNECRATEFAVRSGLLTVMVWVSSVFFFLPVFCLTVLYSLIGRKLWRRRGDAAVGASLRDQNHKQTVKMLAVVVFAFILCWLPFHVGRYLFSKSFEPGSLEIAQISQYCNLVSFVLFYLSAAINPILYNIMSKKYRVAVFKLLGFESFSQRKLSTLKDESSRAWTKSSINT
Details: not given; call rule not given here
Compound `CC(C)(N)C(=O)N[C@H](Cc1c[nH]c2ccccc12)C(=O)N1CCCC2(CCc3ccccc32)C1` (stereo partly drawn) registered an EC50 of 630 nM.

Compound `CC(C)(N)C(=O)N[C@H](Cc1c[nH]c2ccccc12)C(=O)N1CCC[C@]2(CC(=O)c3ccccc3O2)C1` displayed a 50% effective concentration (EC50) of 57 nM.

`CC(C)(N)C(=O)N[C@H](Cc1c[nH]c2ccccc12)C(=O)N1CCC2(CCc3ccccc3O2)CC1` had a concentration for a half-maximal effect (EC50) of 25 nM.

As to `CC(C)(N)C(=O)N[C@H](Cc1c[nH]c2ccccc12)C(=O)N1CCC[C@@]2(CC(=O)c3ccccc3O2)C1`, it took 1.2 nM to reach a half-maximal effect (EC50).

`CC(C)(N)C(=O)N[C@H](Cc1c[nH]c2ccccc12)C(=O)N1CCC2(CC1)CC(O)c1ccccc1O2` (stereo partly drawn): it took 16 nM to reach a half-maximal effect (EC50).

On to `CC(C)(N)C(=O)N[C@H](Cc1c[nH]c2ccccc12)C(=O)N1CCC2(CCCc3ccccc32)CC1`, for which the EC50 is 66 nM.

The compound `CC(C)(N)C(=O)N[C@H](Cc1c[nH]c2ccccc12)C(=O)N1CCC2(CC1)CC(=O)c1ccccc1O2` showed an EC50 of 37 nM.

On to `CC(C)(N)C(=O)N[C@H](Cc1c[nH]c2ccccc12)C(=O)N1CCC2(CC1)Cc1ccccc1C2=O`, for which the EC50 worked out at 42 nM.

For `CC(C)(N)C(=O)N[C@H](Cc1c[nH]c2ccccc12)C(=O)N1CCC2(CC1)Cc1ccccc1C2`, the EC50 was determined as 37 nM.

In turn, `CC(C)(N)C(=O)N[C@H](Cc1c[nH]c2ccccc12)C(=O)N1CCC2(CCc3ccccc32)CC1` [L-162752] came in with a 50% effective concentration (EC50) of 14 nM.

For the compound `CC(C)(N)C(=O)N[C@H](Cc1c[nH]c2ccccc12)C(=O)N1CCCC2(CC(O)c3ccccc3O2)C1` (stereo partly drawn), it took 1.2 nM to reach a half-maximal effect (EC50).

The compound `CC(C)(N)C(=O)N[C@H](Cc1c[nH]c2ccccc12)C(=O)N1CCCC2(Cc3ccccc3C2=O)C1` (stereo partly drawn) gave an EC50 of 20 nM.

With `CC(C)(N)C(=O)N[C@H](Cc1c[nH]c2ccccc12)C(=O)N1CCCC2(Cc3ccccc3C2)C1`, the EC50 was found to be 60 nM.

As to `CC(C)(N)C(=O)N[C@H](Cc1c[nH]c2ccccc12)C(=O)N1CCC2(CC1)Cc1ccccc1C2O` (stereo partly drawn), the concentration for a half-maximal effect (EC50) came out at 19 nM.

`CC(C)(N)C(=O)N[C@H](Cc1c[nH]c2ccccc12)C(=O)N1CCCC2(CC(=O)c3ccccc3O2)C1` (stereo partly drawn) registered an EC50 of 1.8 nM.

Regarding `CC(C)(N)C(=O)N[C@H](Cc1c[nH]c2ccccc12)C(=O)N1CCCC2(CCc3ccccc3O2)C1` (stereo partly drawn), the half-maximal effective concentration (EC50) turned out to be 2.9 nM.

As to `CC(C)(N)CC(=O)N[C@@H]1CCc2ccccc2N(Cc2ccc(-c3ccccc3-c3nnn[nH]3)cc2)C1=O`, the 50% effective concentration (EC50) stood at 60 nM.

The species entered for the next experiment is Rattus norvegicus. In words: In vitro growth hormone release was determined in rat pituitary cell assay; NA means not active. The following applies: pituitary gland cell. The class given is functional.
For `CC(C)(N)C(=O)N[C@H](Cc1c[nH]c2ccccc12)C(=O)N1CCCC2(Cc3ccccc3C2O)C1` (stereo partly drawn), the 50% effective concentration (EC50) result was “Not Active”.

(Values after ChEMBL document CHEMBL1130969, “Potent 3-spiropiperidine growth hormone secretagogues” (Bioorg Med Chem Lett, 1998).)
